assay: gradient 5% acetonitrile 3 min, to 50% in 2 min, to 85% in 15 min, held 3 min, 100 µL/min; settings: column: Zorbax Extend-C18 2.1 x 50 mm; eluents: water / acetonitrile, 0.1% formic acid
Procedure, shortened: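 Standards, all pure, were combined into mixtures of ~100 molecules and run at 100 μL/min on a Zorbax Extend-C18 column (2.1 × 50 mm, 1.8 μm) with water and acetonitrile, each containing 0.1% formic acid. A coupled quadrupole time-of-flight mass spectrometer operated in positive and negative ionization mode. Retention time values come from computationally picked adduct peaks, each inspected manually.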

Going from `CN(C)C(=O)c1ccc2c(c1)N(CC(=O)N1CCCCC1)C(=O)C1CCCCN21` (stereo not given) to `Cc1cc(C)cc(C(=O)N2CCCC(C(=O)NC3CCCC3)C2)c1` (stereo not given), the RP-LC retention time rises from 701 s to 836 s.

First: COc1ccc(C(=O)Nc2cc(-c3cccnc3)no2)c(OC)c1
Second: COc1ccc(C(=O)N2CCC(n3c(-c4ccoc4)nc4cccnc43)C2)cc1OC (stereo not given)
The RP-LC retention time of the first is higher: 802 s for the first, 670 s for the second.

Compared with `COC(=O)c1ncn2c1C(=O)N(Cc1ccc(F)cc1)C(C)(C(=O)NC1CCCCC1)C2` (stereo not given), `COC(=O)CCNC(=O)C1c2ccccc2C(=O)N(CC(C)C)C12CCCCC2` (stereo not given) is higher in RP-LC retention time: 752 s for the first, 842 s for the second.

Compared with `CCCN1CCN(C(=O)c2ccc(CS(=O)c3ccccc3Cl)o2)CC1` (stereo not given), `CCOCCCNC(=O)N1CCN(c2nc3ccccc3n(Cc3ccc(C)cc3)c2=O)CC1` is higher in RP-LC retention time: 593 s for the first, 1010 s for the second.

Going from `O=C(N[C@H]1C[C@@H]2C[C@H]1CN2C(=O)c1cccc(OC(F)(F)F)c1)c1ccccc1` to `COc1ccc(S(=O)(=O)N2C[C@@H]3C[C@H]2C[C@@H]3NC(=O)c2cccs2)cc1Cl`, the RP-LC retention time falls from 846 s to 792 s.

Compared with `Cc1nc(NC(=O)c2ccc(F)cc2)nc2cc3c(cc12)OCO3`, `Cc1ccc(-c2noc(CSc3nc4cc5c(cc4c(=O)n3Cc3ccncc3)OCO5)n2)cc1` is higher in RP-LC retention time: 705 s for the first, 845 s for the second.

Compared with `CC1CCN(S(=O)(=O)c2ccc(-c3nnc(C(=O)N4CCN(C)CC4)o3)cc2)CC1`, `Cc1ccc2c(c1)N(C(=O)C1CCN(S(=O)(=O)c3cccnc3)CC1)CCO2` is higher in RP-LC retention time: 665 s for the first, 823 s for the second.

Going from `Cc1cccc(NS(=O)(=O)c2cc3c(=O)n(C)ncn3c2)c1` to `Cc1cccc(NC(=O)c2cn3c(n2)CCCC3)c1`, the RP-LC retention time falls from 797 s to 609 s.

First: Cc1ccc(Cl)cc1NC(=O)C1CC(=O)N(CCc2c[nH]c3ccc(F)cc23)C1 (stereo not given)
Second: Cc1nc(-c2csc(S(=O)(=O)N3CCCC(C(=O)Nc4ccc(F)cc4Cl)C3)c2)no1 (stereo not given)
The RP-LC retention time of the first is lower: 875 s for the first, 1010 s for the second.

Compared with `O=C(NCCCn1c(-c2ccncc2)nc2cccnc21)Nc1ccc(F)cc1F`, `CCOc1ccc(OCC)c(NC(=O)C2CCN(c3nccnc3Sc3ccc(C)cc3)CC2)c1` is higher in RP-LC retention time: 652 s for the first, 1380 s for the second.

Going from `O=C(Cc1cccc(C(F)(F)F)c1)N1CCc2nc[nH]c2C1` to `Cc1noc(C)c1C1CCCN1C(=O)Cc1cccc(F)c1` (stereo not given), the RP-LC retention time rises from 612 s to 777 s.

Going from `CC(C)c1cc(-c2nnc3sc(COc4ccc(Cl)cc4)nn23)n[nH]1` to `Cc1ccccc1-c1nn2c(CSc3ccccc3)nnc2s1`, the RP-LC retention time rises from 900 s to 1030 s.

First: CCOc1ccccc1CNC(=O)c1cnc(OC)nc1
Second: Cc1ccccc1OCC(=O)NC(C)c1ccccc1 (stereo not given)
The RP-LC retention time of the first is lower: 702 s for the first, 903 s for the second.

Going from `Cc1cc(C)cc(C(=O)NCc2ccc3c(c2)nnn3C)c1` to `O=C(NCc1cccc(Cl)c1)C1CCN(c2cnc3nccnc3c2)CC1`, the RP-LC retention time falls from 755 s to 697 s.

Compared with `Cc1ccc(CNC(=O)CCCn2c(=O)c3sccc3n(CC(=O)N3CCCCC3C)c2=O)cc1` (stereo not given), `Cc1ccc(CNC(=O)C2(C)CN(S(C)(=O)=O)CC(=O)N2c2cc(Cl)ccc2C)cc1` (stereo not given) is lower in RP-LC retention time: 859 s for the first, 829 s for the second.

First: CCC1CCCCN1Cc1nc(Cn2ccn3nc(-c4ccc(C)cc4)cc3c2=O)no1 (stereo not given)
Second: Cc1ccc2ncn(C3CCN(S(=O)(=O)c4ccc(C)c(F)c4)CC3)c(=O)c2c1
The RP-LC retention time of the first is lower: 726 s for the first, 968 s for the second.

First: COCCc1noc(C2CN(S(=O)(=O)c3ccccc3)C2)n1
Second: O=C(CN1CC(c2nc(Cc3ccccc3)no2)C1)NCc1ccc(F)cc1
The RP-LC retention time of the first is higher: 751 s for the first, 595 s for the second.

First: CCn1ccc(C(=O)NCc2c(-c3ccccc3)nc3sc(C)nn23)n1
Second: CCN(CC)c1ncnc2c(-c3ccccc3)cn(CC(=O)NC(C)C)c12
The RP-LC retention time of the first is higher: 743 s for the first, 686 s for the second.

Compared with `Cc1noc(C)c1CCC(=O)N1CCN(c2ncnc3c2CCC3)CC1`, `Cc1ccc(-n2nc(C)c3sc(N(C)CC(=O)N4CCC5(CC4)OCCO5)nc32)cc1` is higher in RP-LC retention time: 576 s for the first, 932 s for the second.

Compared with `Cc1[nH]c(=O)[nH]c(=O)c1CC(=O)NCCn1nc(-c2ccco2)ccc1=O`, `CCCN1C(=O)c2cccnc2Sc2cc(C(=O)NC(C)C)ccc21` is higher in RP-LC retention time: 552 s for the first, 753 s for the second.

First: Cc1ccc(CNC(=O)N2CC(N(CC3CC3)C3CCOCC3)C2)cc1
Second: COCCn1nnnc1C1CC2(CCOCC2)C(=O)N1Cc1ccc(C(F)(F)F)cc1 (stereo not given)
The RP-LC retention time of the first is lower: 582 s for the first, 797 s for the second.

Going from `COc1ccc(-c2cn3c(CC(=O)Nc4ccc(C(F)(F)F)cc4)csc3n2)cc1` to `CCN1C(=O)c2cccc3c(NC(=O)Cc4ccc(S(C)(=O)=O)cc4)ccc1c23`, the RP-LC retention time falls from 869 s to 657 s.

Going from `CCOc1ccccc1-c1nc(-c2cn(-c3cccc(F)c3)nn2)no1` to `Cc1cccc(-c2nc(Cn3nnc(-c4nc(-c5ccccc5)no4)c3C)c(C)o2)c1`, the RP-LC retention time rises from 936 s to 1280 s.

First: CN(CCc1noc(COc2ccccc2F)n1)C(=O)c1c(F)cccc1F
Second: COc1cccc(-n2ccc(=O)c(-c3nc(-c4ccc5c(c4)OCO5)no3)n2)c1
The RP-LC retention time of the first is higher: 885 s for the first, 799 s for the second.

First: COc1ccc(C2CC(=O)N(CC(=O)N3CCOCC3)c3ccccc3S2)cc1OC (stereo not given)
Second: CCOc1cc2c(cc1OCC)C1C(C(=O)NCCN3CCOCC3)c3ccccc3C(=O)N1CC2 (stereo not given)
The RP-LC retention time of the first is higher: 736 s for the first, 615 s for the second.

Going from `Cc1cccc(N2CCN(S(=O)(=O)c3cc(-c4cc(C(F)(F)F)[nH]n4)sc3C)CC2)c1C` to `CCOC(=O)c1[nH]c(C)c(S(=O)(=O)N2CCN(c3ccccn3)CC2)c1C`, the RP-LC retention time falls from 1290 s to 640 s.

Compared with `CCn1cc(S(=O)(=O)N2CCC(c3noc(COCC4CC4)n3)CC2)cn1`, `Cc1noc(C)c1-c1ccc(S(=O)(=O)NC2CCC(C)CC2)cc1` (stereo not given) is higher in RP-LC retention time: 841 s for the first, 1030 s for the second.

Compared with `COc1cc([C@@H]2c3cc4c(cc3[C@H](O)[C@@H](CO)[C@@H]2C(=O)NCc2cc(F)cc(F)c2)OCO4)cc(OC)c1OC`, `CCOC(=O)c1c(-c2ccc(OC)c(OC)c2)csc1NC(=O)CN1CCCC1` is lower in RP-LC retention time: 737 s for the first, 566 s for the second.

First: Cc1ccc2ncn(C3CCN(C(=O)Nc4ccc(C)c(F)c4)CC3)c(=O)c2c1
Second: CCc1ccc(C(=O)N2CCC(c3nc4ccncc4n3C(C)C)C2)cc1 (stereo not given)
The RP-LC retention time of the first is higher: 851 s for the first, 572 s for the second.

Compared with `CC(C)(C)c1noc(-c2cccn3c(CC(=O)NC4CCCCC4)nnc23)n1`, `CC(C)Oc1ccc(CNC(=O)C2CCN(c3cnc4nccnc4c3)CC2)cc1` is lower in RP-LC retention time: 754 s for the first, 683 s for the second.

Going from `Cn1cc(C(=O)Nc2ccc3c(c2)CCC3)c(S(=O)(=O)N2CCSCC2)n1` to `Cc1nn(CC(=O)NCCCN2CCCC2)c(=O)c2nn(-c3ccccc3)c(C)c12`, the RP-LC retention time falls from 1040 s to 597 s.

Going from `O=C(Nc1nccnc1C(=O)NCCCN1CCOCC1)c1ccccc1` to `COc1cc(NC(=O)C2CCCN(S(=O)(=O)c3cc(-c4noc(C)n4)cs3)C2)cc(OC)c1` (stereo not given), the RP-LC retention time rises from 551 s to 949 s.

With `Cc1cc(Br)ccc1-c1ccc(CNCCCN(C)C)o1` the RP-LC retention time was 927 s.

From the METLIN SMRT retention time set (Domingo-Almenara et al. 2019)
